Source: ChEMBL document CHEMBL1201862, “PubChem BioAssay data set” (2004)
Calls of active or inactive are those of the source.

Tests used:
[1] = target: T1, CAAX prenyl protease 2 (Saccharomyces cerevisiae S288c, UniProt Q03530); format: biochemical
T1 sequence (Q03530 whole entry): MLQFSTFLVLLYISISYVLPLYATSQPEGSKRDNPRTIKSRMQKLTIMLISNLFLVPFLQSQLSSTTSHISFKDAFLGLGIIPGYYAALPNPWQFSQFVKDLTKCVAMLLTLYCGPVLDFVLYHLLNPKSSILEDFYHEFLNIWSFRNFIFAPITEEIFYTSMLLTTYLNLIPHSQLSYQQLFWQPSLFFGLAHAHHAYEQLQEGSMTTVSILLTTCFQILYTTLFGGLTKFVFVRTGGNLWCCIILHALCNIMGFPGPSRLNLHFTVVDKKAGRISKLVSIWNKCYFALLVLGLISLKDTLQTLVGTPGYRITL

[2] = target: Trypsin (Sus scrofa, UniProt P00761); test: trypsin protease activity blockade – biochemical, quenched peptide fluorescence, cherry-pick, selectivity assay for Rce1 protease inhibitor project, dose response (AID 488789)
Trypsin, sequence (P00761 whole entry): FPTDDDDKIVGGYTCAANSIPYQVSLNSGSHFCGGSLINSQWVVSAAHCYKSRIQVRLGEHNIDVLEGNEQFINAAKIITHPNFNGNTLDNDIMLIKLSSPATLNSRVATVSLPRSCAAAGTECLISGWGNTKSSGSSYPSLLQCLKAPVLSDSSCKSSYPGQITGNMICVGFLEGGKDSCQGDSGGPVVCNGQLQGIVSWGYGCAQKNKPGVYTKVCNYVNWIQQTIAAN

[3] = target: T2, Estrogen receptor (Homo sapiens, UniProt P03372);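 also: potency for inhibiting coactivator peptide recruitment to the receptor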
T2 sequence (P03372 whole entry): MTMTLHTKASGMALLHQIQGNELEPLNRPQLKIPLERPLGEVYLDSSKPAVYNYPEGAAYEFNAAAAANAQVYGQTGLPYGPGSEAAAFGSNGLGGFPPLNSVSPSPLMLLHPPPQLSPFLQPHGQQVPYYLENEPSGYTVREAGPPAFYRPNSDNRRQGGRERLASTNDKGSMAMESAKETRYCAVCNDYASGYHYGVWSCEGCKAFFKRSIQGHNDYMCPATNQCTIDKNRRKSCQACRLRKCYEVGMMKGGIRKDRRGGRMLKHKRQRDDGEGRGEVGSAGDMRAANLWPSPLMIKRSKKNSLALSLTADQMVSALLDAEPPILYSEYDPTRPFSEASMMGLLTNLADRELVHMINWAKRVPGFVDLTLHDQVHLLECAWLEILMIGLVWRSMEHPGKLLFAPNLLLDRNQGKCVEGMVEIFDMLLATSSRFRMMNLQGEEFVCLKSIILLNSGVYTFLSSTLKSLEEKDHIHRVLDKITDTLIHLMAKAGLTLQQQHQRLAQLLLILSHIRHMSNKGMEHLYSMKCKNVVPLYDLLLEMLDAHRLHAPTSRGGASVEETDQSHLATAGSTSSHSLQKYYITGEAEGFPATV

[4] = target: T3, Protein skinhead-1 (Caenorhabditis elegans, UniProt P34707); format: functional
T3 sequence (P34707 whole entry): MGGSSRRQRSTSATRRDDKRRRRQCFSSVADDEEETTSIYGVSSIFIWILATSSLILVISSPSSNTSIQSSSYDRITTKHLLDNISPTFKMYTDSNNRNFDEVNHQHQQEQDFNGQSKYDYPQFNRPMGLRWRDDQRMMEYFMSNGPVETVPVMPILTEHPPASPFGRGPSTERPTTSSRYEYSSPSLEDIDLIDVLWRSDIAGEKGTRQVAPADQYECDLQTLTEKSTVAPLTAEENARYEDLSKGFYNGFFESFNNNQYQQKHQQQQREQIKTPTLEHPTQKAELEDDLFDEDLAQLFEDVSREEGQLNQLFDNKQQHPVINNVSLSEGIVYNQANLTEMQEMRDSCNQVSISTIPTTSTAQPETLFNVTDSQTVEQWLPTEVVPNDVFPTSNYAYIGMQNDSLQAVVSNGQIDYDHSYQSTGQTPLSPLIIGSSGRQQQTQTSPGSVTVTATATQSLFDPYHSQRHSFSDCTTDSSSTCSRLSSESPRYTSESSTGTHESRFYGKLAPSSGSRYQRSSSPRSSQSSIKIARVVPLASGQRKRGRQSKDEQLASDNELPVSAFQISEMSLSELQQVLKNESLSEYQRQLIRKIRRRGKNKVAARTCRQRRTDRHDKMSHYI

[5] = target: T4, CAAX prenyl protease 2 (Homo sapiens, UniProt Q9Y256); test: inhibition of Ras-converting CAAX protease Rce1 – biochemical, yeast membranes, quenched-peptide fluorescence, cherry-pick, dose response (AID 588849)
T4 sequence (Q9Y256 whole entry): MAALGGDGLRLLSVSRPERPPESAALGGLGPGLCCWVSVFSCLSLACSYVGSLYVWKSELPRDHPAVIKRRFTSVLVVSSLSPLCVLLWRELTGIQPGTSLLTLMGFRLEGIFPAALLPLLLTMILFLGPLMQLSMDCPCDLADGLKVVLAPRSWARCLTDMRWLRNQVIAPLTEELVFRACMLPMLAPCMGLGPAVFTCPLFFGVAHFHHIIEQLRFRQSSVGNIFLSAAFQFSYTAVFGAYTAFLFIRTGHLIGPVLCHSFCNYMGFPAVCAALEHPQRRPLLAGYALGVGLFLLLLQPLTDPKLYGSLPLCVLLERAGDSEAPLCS

[6] = target: T5, Corticotropin-releasing factor receptor 2/Corticotropin-releasing factor-binding protein (Homo sapiens, UniProt P24387+Q13324); test: activators of CRF receptor 2 with binding protein – uHTS hits, confirmation (AID 602473); format: functional; conditions: read-out: EC50_Mean
T5 sequence (Q13324 whole entry): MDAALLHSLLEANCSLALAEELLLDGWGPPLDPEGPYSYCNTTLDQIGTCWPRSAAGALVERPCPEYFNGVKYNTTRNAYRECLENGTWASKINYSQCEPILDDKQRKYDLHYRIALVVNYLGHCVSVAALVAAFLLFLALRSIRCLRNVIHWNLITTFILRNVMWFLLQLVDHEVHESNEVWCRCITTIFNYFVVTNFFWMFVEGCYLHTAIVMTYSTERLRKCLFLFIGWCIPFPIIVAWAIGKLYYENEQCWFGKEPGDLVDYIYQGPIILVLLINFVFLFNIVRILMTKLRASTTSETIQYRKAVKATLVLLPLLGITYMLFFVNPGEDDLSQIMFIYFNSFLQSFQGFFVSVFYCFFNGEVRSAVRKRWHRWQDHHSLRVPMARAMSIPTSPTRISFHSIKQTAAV
T5 sequence (P24387 whole entry): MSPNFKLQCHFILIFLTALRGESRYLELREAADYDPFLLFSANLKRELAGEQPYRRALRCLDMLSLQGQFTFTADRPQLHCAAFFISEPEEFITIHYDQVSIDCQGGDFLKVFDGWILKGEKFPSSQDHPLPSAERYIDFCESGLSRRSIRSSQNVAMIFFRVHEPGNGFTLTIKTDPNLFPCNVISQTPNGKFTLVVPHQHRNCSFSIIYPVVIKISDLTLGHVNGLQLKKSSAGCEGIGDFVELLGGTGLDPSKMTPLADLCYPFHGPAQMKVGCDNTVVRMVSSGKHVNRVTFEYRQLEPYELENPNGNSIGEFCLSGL

[7] = target: T5, Corticotropin-releasing factor receptor 2/Corticotropin-releasing factor-binding protein; test: Dose Response confirmation of uHTS hits for small molecule antagonists of the CRF-binding protein and CRF-R2 receptor complex.; format: functional; conditions: read-out: IC50_Mean
[8] = blockers of CRF-binding protein–CRF-R2 complex – cell-based, uHTS hits, 384-well, dose response (AID 651639); format: functional, Homo sapiens; conditions: read-out: IC50_Mean
[9] = target: Procathepsin L (Homo sapiens, UniProt P07711); test: CTSL1 protease inhibition – biochemical, QFRET, 1536-well, counter-screen for M1/M17 aminopeptidase inhibitor project, dose response (AID 2214)
Procathepsin L, sequence (P07711 whole entry): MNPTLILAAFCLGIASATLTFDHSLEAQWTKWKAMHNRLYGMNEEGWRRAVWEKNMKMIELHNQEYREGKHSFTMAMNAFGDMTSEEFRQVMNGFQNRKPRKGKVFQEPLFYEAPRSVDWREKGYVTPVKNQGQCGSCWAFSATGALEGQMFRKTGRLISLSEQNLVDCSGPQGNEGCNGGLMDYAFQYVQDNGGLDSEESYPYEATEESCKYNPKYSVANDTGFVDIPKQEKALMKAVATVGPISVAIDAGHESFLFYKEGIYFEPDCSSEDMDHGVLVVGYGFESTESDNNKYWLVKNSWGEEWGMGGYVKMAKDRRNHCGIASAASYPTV

[10] = target: T6, Aspartyl aminopeptidase (Plasmodium falciparum 3D7, UniProt Q8I2J3); test: Counterscreen for inhibitors of M1 and M17 aminopeptidases: QFRET-based biochemical high throughput dose response assay for inhibitors of the Plasmodium falciparum M18 Aspartyl Aminopeptidase (PFM18AAP). [Related PubChem assays: 1619 (Screening assay (M17LAP inhibitors).), 1445 (Screening assay (M1AAP inhibitors).)]
T6 sequence (Q8I2J3 whole entry): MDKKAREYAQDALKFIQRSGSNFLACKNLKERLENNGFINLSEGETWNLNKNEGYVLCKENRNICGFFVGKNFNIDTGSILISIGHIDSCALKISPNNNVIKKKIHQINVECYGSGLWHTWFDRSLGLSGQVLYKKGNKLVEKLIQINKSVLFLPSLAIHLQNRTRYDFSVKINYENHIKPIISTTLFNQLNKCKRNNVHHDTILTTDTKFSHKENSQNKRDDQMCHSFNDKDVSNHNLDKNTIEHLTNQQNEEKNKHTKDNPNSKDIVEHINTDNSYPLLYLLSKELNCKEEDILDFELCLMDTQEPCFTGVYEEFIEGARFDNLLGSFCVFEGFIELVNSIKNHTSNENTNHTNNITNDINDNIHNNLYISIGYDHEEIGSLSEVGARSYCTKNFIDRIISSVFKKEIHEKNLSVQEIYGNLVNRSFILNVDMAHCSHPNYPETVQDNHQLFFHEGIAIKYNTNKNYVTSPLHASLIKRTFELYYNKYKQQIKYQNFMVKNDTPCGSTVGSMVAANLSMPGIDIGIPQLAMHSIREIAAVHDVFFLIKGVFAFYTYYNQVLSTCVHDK

[11] = target: T7, Leucine aminopeptidase (Plasmodium falciparum 3D7, UniProt Q8IL11); test: P. falciparum M17LAP inhibitors, primary screen, biochemical, fluorogenic H-Leu-NHMec substrate, 1536-well (AID 1619); format: functional
T7 sequence (Q8IL11 whole entry): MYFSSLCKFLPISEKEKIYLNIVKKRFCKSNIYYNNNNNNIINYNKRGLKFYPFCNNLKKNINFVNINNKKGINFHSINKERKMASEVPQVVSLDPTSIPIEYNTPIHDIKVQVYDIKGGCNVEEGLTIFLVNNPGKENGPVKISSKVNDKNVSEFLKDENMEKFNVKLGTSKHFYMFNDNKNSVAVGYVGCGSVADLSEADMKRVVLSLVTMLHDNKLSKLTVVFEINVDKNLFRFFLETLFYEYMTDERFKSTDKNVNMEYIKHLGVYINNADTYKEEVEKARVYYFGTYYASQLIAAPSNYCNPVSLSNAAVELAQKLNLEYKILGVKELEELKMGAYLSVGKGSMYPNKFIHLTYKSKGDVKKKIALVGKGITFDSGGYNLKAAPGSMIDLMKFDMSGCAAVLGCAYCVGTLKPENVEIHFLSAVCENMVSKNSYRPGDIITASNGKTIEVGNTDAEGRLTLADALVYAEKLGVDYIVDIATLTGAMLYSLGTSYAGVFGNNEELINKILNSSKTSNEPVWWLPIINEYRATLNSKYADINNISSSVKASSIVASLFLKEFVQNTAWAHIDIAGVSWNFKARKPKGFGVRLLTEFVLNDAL

[12] = target: T8, Aminopeptidase N (Plasmodium falciparum FcB1/Columbia, UniProt O96935); test: malaria alanyl aminopeptidase activity blockers – biochemical, fluorogenic H-Leu-NHMec substrate, 1536-well (AID 1445); design: species or system Plasmodium falciparum 3D7, 3D7
T8 sequence (O96935 whole entry): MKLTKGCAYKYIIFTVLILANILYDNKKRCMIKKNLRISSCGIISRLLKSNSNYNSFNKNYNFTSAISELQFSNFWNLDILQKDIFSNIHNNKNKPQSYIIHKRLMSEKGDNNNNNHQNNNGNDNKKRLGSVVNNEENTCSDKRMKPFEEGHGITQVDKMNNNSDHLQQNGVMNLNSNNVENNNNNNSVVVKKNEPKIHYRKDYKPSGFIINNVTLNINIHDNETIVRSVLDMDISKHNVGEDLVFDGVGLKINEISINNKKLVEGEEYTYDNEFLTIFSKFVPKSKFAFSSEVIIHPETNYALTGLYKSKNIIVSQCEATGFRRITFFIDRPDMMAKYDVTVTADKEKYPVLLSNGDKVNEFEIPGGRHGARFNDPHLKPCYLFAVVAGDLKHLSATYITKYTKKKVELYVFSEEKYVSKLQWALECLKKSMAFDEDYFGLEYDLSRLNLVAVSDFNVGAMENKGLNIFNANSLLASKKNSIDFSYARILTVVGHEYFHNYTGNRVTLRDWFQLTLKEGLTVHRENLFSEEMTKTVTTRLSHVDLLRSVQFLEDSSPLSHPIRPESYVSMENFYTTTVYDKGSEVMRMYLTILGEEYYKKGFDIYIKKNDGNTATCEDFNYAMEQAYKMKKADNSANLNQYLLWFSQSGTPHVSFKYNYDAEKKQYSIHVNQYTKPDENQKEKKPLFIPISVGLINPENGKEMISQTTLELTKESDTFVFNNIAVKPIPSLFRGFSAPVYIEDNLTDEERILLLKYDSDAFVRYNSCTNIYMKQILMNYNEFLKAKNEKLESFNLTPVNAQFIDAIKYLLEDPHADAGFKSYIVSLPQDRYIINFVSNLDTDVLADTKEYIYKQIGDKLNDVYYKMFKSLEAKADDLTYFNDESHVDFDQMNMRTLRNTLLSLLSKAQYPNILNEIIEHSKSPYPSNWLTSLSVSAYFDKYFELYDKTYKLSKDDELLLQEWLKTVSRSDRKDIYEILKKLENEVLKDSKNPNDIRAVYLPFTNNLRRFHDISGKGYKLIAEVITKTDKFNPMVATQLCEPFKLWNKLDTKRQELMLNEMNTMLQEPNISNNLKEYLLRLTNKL

[13] = target: Estrogen receptor beta (Homo sapiens, UniProt Q92731);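 also: recombinant ER-beta bound to coactivator SRC1 peptide in presence of estradiol agonist; inhibitors block coactivator peptide binding and lower the FRET signal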
Estrogen receptor beta, sequence (Q92731 whole entry): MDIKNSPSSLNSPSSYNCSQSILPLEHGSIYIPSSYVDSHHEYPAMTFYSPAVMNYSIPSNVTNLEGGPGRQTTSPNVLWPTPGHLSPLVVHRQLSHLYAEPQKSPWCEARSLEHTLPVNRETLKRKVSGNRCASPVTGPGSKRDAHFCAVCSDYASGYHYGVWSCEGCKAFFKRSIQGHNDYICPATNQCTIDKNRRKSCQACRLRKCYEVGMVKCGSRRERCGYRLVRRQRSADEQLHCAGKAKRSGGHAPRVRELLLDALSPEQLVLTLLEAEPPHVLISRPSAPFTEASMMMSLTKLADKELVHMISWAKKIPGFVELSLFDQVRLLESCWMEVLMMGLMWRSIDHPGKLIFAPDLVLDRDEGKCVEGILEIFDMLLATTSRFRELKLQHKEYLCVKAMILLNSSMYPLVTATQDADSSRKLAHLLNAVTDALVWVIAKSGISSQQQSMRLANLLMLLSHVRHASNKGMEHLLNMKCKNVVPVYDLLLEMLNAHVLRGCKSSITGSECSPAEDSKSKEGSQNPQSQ

For CC1(c2ccncc2)Nc2ccccc2-c2nc3ccccc3n21 (centres undefined), the AC50 [1] was 68 µM (active) and the AC50 [2] was 9.63 µM (active).

For Cc1cc(Cl)cc(C)c1OCCCCN1CCOCC1, the IC50 [3] was > 50 µM (not active) and the IC50 [4] was 38.9 µM (active).

In the case of CN(C)c1ccc(/C=N/NC(=O)CNC(=O)c2ccco2)cc1, the AC50 [1] was 7.99 µM (active) and the AC50 [5] was 5.17 µM (active).

With COc1cc(NC(=O)CSc2nc3c(C)ccc(C)c3cc2C)c(C(=O)O)cc1OC the EC50 [6] was > 53 µM (inactive), the IC50 [7] was 10.1 µM (active) and the IC50 [8] was > 20 µM (inactive). For the same molecule, the IC50 [9] was 59.3 µM (not active), the IC50 [10] was > 73.5 µM (not active) and the IC50 [11] was < 1 µM (active).

With CN(c1ccccc1)c1ccc(/C=N/NC(=O)CC#N)cc1 the AC50 [1] was 6.98 µM (active), the AC50 [2] was 5.99 µM (active) and the AC50 [5] was 2.64 µM (active).

In the case of CCOC(=O)c1c(NC(=O)CSc2ccccc2C(=O)O)sc(C)c1C, the IC50 [12] was 52.3 µM (active).

In the case of Cc1ccc(C(=O)CSC2=C(C#N)C(c3ccco3)CC(=O)N2)c(C)c1 (centres undefined), the IC50 [3] was 26.5 µM (active) and the IC50 [13] was 16.1 µM (active).

In the case of COc1ccc(/C=N/NC(=O)c2[nH]c3ccc(Br)cc3c2-c2ccccc2)c(C(=O)O)c1OC, the IC50 [12] was 65.3 µM (active).
